The term MIC denotes the least concentration at which growth counts as inhibited.

The structures appear in SMILES notation. In brackets after ≈: the same amount, converted by molar mass.

We go through 33 compounds from patent publication US20220396586A1, “THIAZOLE CARBOXAMIDE COMPOUNDS AND USE THEREOF FOR THE TREATMENT OF MYCOBACTERIAL INFECTIONS” (THE GLOBAL ALLIANCE FOR TB DRUG DEVELOPMENT, INC., priority 2019, published 2022).

One assay relates to M. tb H37Rv. The assay can be described thus: MIC determination against M. tb H37Rv (MIC-MABA). Particulars: 7H9 broth, 10 days exposure, MIC = lowest concentration inhibiting fluorescence by 90%; for MIC: Mycobacterium tuberculosis, H37RV, 240 h, read-out: M. tb H37Rv: MIC-MABA, M. tb H37Rv. The class given is cell-based, Mycobacterium tuberculosis.
The test system of another assay is M. ab_ATCC. As to the kind of experiment: MIC against Mycobacterium abscessus (M. ab_ATCC, MHII), procedure of Franz 2017. The class given is cell-based. The following applies: Mycobacterium abscessus ATCC; for MIC: Mycobacteroides abscessus. From the text: The procedure described in Franz 2017 was used to generate the data shown in column 2 of Table 1.

For the compound `Cc1nc2[nH]c(C(=O)NC3CC[Si](C)(C)CC3)cc2s1` [MPL-205, N-(1,1-dimethylsilinan-4-yl)-2-methyl-4H-pyrrolo [2,3-d]thiazole-5-carboxamide], the MIC in the assay on M. tb H37Rv is 0.18 µg/mL (≈ 0.585 µM); in the assay on M. ab_ATCC, more than 64 µg/mL.
For `COCc1nc2[nH]c(C(=O)NC3CC[Si]4(CCCCC4)CC3)cc2s1` [MPL-429, 2-(methoxymethyl)-N-(6-silaspiro[5.5]undecan-3-yl)-4H-pyrrolo[2,3-d]thiazole-5-carboxamide] the same measures were 0.058 µg/mL (≈ 0.154 µM) and 64 µg/mL (≈ 169 µM).
Regarding `C[Si]1(C)CCCC(NC(=O)c2cc3sc(-c4ccccn4)nc3[nH]2)CC1` (centres unmarked) [MPL-364, N-(1,1-dimethylsilepan-4-yl)-2-(2-pyridyl)-4H-pyrrolo[2,3-d]thiazole-5-carboxamide], the figures for the MIC in the assay with M. tb H37Rv and in the assay on M. ab_ATCC were 0.423 µg/mL (≈ 1.1 µM) and more than 64 µg/mL, respectively.
For `Cc1nc2cc(C(=O)N[C@H]3C[C@H]4C[C@@H]([C@@H]3C)C4(C)C)[nH]c2s1` [MPL-090, 2-methyl-N-((1S,2S,3S,5R)-2,6,6-trimethylbicyclo[3.1.1]heptan-3-yl)-4H-pyrrolo[3,2-d]thiazole-5-carboxamide] the same measures were 3.2 µg/mL (≈ 10.1 µM) and more than 64 µg/mL.
For `Cc1c(C(=O)N[C@H]2C[C@H]3C[C@@H]([C@@H]2C)C3(C)C)[nH]c2nc(C3CC3)sc12` [MPL-150, 2-cyclopropyl-6-methyl-N-((1S,2S,3S,5R)-2,6,6-trimethylbicyclo[3.1.1]heptan-3-yl)-4H-pyrrolo[2,3-d]thiazole-5-carboxamide], in that order: 0.3 µg/mL (≈ 0.839 µM) and more than 64 µg/mL.
Take `C[C@@H]1[C@@H](NC(=O)c2cc3scnc3[nH]2)C[C@H]2C[C@@H]1C2(C)C` [MPL-026, N-[(1S,2S,3S,5R)-2,6,6-trimethylnorpinan-3-yl]-4H-pyrrolo[2,3-d]thiazole-5-carboxamide]: the MIC in the assay with M. tb H37Rv amounted to 3.1 µg/mL (≈ 10.2 µM).
Turning to `Cc1c(C(=O)NC2CC[Si](C)(C)CC2)[nH]c2sc(C(C)C)nc12` [MPL-312, N-(1,1-dimethylsilinan-4-yl)-2-isopropyl-6-methyl-4H-pyrrolo[3,2-d]thiazole-5-carboxamide], the MIC is 0.498 µg/mL (≈ 1.42 µM) in the assay on M. tb H37Rv and more than 64 µg/mL in the assay with M. ab_ATCC.
For the compound `COc1nc2[nH]c(C(=O)NC3CCC[Si](C)(C)CC3)cc2s1` (racemic) [MPL-395, N-(1,1-dimethylsilepan-4-yl)-2-methoxy-4H-pyrrolo[2,3-d]thiazole-5-carboxamide], the MIC in the assay with M. tb H37Rv was found to be 0.047 µg/mL (≈ 0.139 µM); with M. ab_ATCC, 1 µg/mL (≈ 2.96 µM).
As for `Cc1nc2[nH]c(C(=O)NC3CCC(C)(C)CC3)cc2s1` [MPL-020, N-(4,4-dimethylcyclohexyl)-2-methyl-4H-pyrrolo[2,3-d]thiazole-5-carboxamide], the minimal inhibitory concentration (MIC) stood at 0.53 µg/mL (≈ 1.82 µM) in the assay with M. tb H37Rv and 2 µg/mL (≈ 6.86 µM) in the assay on M. ab_ATCC.
For `C[Si]1(C)CCC(NC(=O)c2cc3sc(-c4ccccc4F)nc3[nH]2)CC1` [MPL-373, N-(1,1-dimethylsilinan-4-yl)-2-(2-fluorophenyl)-4H-pyrrolo[2,3-d]thiazole-5-carboxamide], in that order: 0.084 µg/mL (≈ 0.217 µM) and 6 µg/mL (≈ 15.5 µM).
For `C[Si]1(C)CCC(NC(=O)c2cc3sc(C4CC4)nc3[nH]2)CC1` [MPL-240, 2-cyclopropyl-N-(1,1-dimethylsilinan-4-yl)-4H-pyrrolo[2,3-d]thiazole-5-carboxamide], in that order: 0.46 µg/mL (≈ 1.38 µM) and 0.5 µg/mL (≈ 1.5 µM).
For `Cc1c(C(=O)NC2CCCCCCC2)[nH]c2nc(C3CC3)sc12` [MPL-291, N-cyclooctyl-2-cyclopropyl-6-methyl-4H-pyrrolo[2,3-d]thiazole-5-carboxamide] the same measures were 0.372 µg/mL (≈ 1.12 µM) and more than 64 µg/mL.
In the case of `C[Si]1(C)CCCC(NC(=O)c2cc3sc(-c4ccccc4)nc3[nH]2)CCC1` [MPL-369, N-(1,1-dimethylsilocan-5-yl)-2-phenyl-4H-pyrrolo[2,3-d]thiazole-5-carboxamide], the minimal inhibitory concentration (MIC) in the assay on M. tb H37Rv was 0.031 µg/mL (≈ 0.078 µM); with M. ab_ATCC, more than 64 µg/mL.
For `O=C(NC1CC[Si]2(CCCC2)CC1)c1cc2sc(OC3CC3)nc2[nH]1` [MPL-458, 2-(cyclopropoxy)-N-(5-silaspiro[4.5]decan-8-yl)-4H-pyrrolo[2,3-d]thiazole-5-carboxamide] the same measures were 0.124 µg/mL (≈ 0.33 µM) and more than 64 µg/mL.
For `Cc1c(C(=O)NC2CC[Si]3(CCCCC3)CC2)[nH]c2nc(-c3ccccc3)sc12` [MPL-431, 6-methyl-2-phenyl-N-(6-silaspiro[5.5]undecan-3-yl)-4H-pyrrolo[2,3-d]thiazole-5-carboxamide] the same measures were 0.021 µg/mL (≈ 0.0496 µM) and more than 64 µg/mL.
For `C[Si]1(C)CCCC(NC(=O)c2cc3sc(OC4CC4)nc3[nH]2)CC1` (centres unmarked) [MPL-472, 2-(cyclopropoxy)-N-(1,1-dimethylsilepan-4-yl)-4H-pyrrolo[2,3-d]thiazole-5-carboxamide], in that order: 0.06 µg/mL (≈ 0.165 µM) and more than 64 µg/mL.
Turning to `Cc1nc2cc(C(=O)NC3CC[Si](C)(C)CC3)[nH]c2s1` [MPL-206, N-(1,1-dimethylsilinan-4-yl)-2-methyl-4H-pyrrolo[3,2-d]thiazole-5-carboxamide], the minimal inhibitory concentration (MIC) in the assay with M. tb H37Rv was more than 1.6 µg/mL; against M. ab_ATCC it was more than 64 µg/mL.
For the compound `Cc1nc2[nH]c(C(=O)N[C@H]3C[C@H]4C[C@@H]([C@@H]3C)C4(C)C)cc2s1` [MPL-025, 2-methyl-N-[(1S,2S,3S,5R)-2,6,6-trimethylnorpinan-3-yl]-4H-pyrrolo[2,3-d]thiazole-5-carboxamide], the minimal inhibitory concentration (MIC) in the assay on M. tb H37Rv was 0.71 µg/mL (≈ 2.24 µM); in the assay on M. ab_ATCC, 4 µg/mL (≈ 12.6 µM).
With `C[Si]1(C)CCCC(NC(=O)c2cc3sc(-c4cccnc4)nc3[nH]2)CC1` (centres unmarked) [MPL-365, N-(1,1-dimethylsilepan-4-yl)-2-(3-pyridyl)-4H-pyrrolo[2,3-d]thiazole-5-carboxamide], the minimal inhibitory concentration (MIC) with M. tb H37Rv is 0.125 µg/mL (≈ 0.325 µM); in the assay with M. ab_ATCC it was more than 64 µg/mL.
Turning to `COc1nc2[nH]c(C(=O)NC3CCC[Si](C)(C)CC3)cc2s1` (single isomer, unassigned) [MPL-395B, N-(1,1-dimethylsilepan-4-yl)-2-methoxy-4H-pyrrolo[2,3-d]thiazole-5-carboxamide], the “M. tb H37Rv: MIC-MABA” value in the assay with M. tb H37Rv was 0.999 µg/mL. Besides, the “M. ab_ATCC: MIC MHII: MIC” value in the assay with M. ab_ATCC is more than 64 µg/mL.
Take `COc1ccccc1-c1nc2[nH]c(C(=O)NC3CC[Si](C)(C)CC3)cc2s1` [MPL-372, N-(1,1-dimethylsilinan-4-yl)-2-(2-methoxyphenyl)-4H-pyrrolo[2,3-d]thiazole-5-carboxamide]: the MIC in the assay on M. tb H37Rv was 0.138 µg/mL (≈ 0.345 µM); in the assay with M. ab_ATCC, more than 64 µg/mL.
For `O=C(NC1CC[Si]2(CCCCC2)CC1)c1cc2sc(-c3ccccc3)nc2[nH]1` [MPL-359, 2-phenyl-N-(6-silaspiro[5.5]undecan-3-yl)-4H-pyrrolo[2,3-d]thiazole-5-carboxamide] the same measures were 0.014 µg/mL (≈ 0.0342 µM) and more than 64 µg/mL.
For `COc1nc2[nH]c(C(=O)N[C@H]3C[C@H]4C[C@H](C4(C)C)[C@@]3(C)O)cc2s1` [MPL-457, N-[(1R,2R,3S,5R)-2-hydroxy-2,6,6-trimethyl-norpinan-3-yl]-2-methoxy-4H-pyrrolo[2,3-d]thiazole-5-carboxamide], in the assay with M. tb H37Rv, the minimal inhibitory concentration (MIC) is more than 1 µg/mL.
Turning to `O=C(NC1CC[Si]2(CCCC2)CC1)c1cc2sc(OC3CCC3)nc2[nH]1` [MPL-459, 2-(cyclobutoxy)-N-(5-silaspiro[4.5]decan-8-yl)-4H-pyrrolo[2,3-d]thiazole-5-carboxamide], the figures for the MIC in the assay with M. tb H37Rv and in the assay with M. ab_ATCC were 0.0593 µg/mL (≈ 0.152 µM) and more than 64 µg/mL, respectively.
Take `C[Si]1(C)CCCC(NC(=O)c2cc3sc(OC4CCCC4)nc3[nH]2)CC1` (centres unmarked) [MPL-478, 2-(cyclopentoxy)-N-(1,1-dimethylsilepan-4-yl)-4H-pyrrolo[2,3-d]thiazole-5-carboxamide]: the minimum inhibitory concentration (MIC) with M. tb H37Rv was 0.02 µg/mL (≈ 0.0511 µM); against M. ab_ATCC it was more than 64 µg/mL.
For `COc1nc2cc(C(=O)NC3CC[Si](C)(C)CC3)[nH]c2s1` [MPL-313, N-(1,1-dimethylsilinan-4-yl)-2-methoxy-4H-pyrrolo[3,2-d]thiazole-5-carboxamide], in that order: 0.254 µg/mL (≈ 0.785 µM) and more than 64 µg/mL.
On to `C[Si]1(C)CCC(NC(=O)c2[nH]c3sc(C4CC4)nc3c2Br)CC1` [MPL-311, 6-bromo-2-cyclopropyl-N-(1,1-dimethylsilinan-4-yl)-4H-pyrrolo[3,2-d]thiazole-5-carboxamide], for which the minimum inhibitory concentration (MIC) in the assay with M. tb H37Rv is 0.457 µg/mL (≈ 1.11 µM); in the assay with M. ab_ATCC, more than 64 µg/mL.
In the case of `O=C(NC1CC[Si]2(CCCC2)CC1)c1cc2sc(-c3ccccc3)nc2[nH]1` [MPL-358, 2-phenyl-N-(5-silaspiro[4.5]decan-8-yl)-4H-pyrrolo[2,3-d]thiazole-5-carboxamide], the MIC is 0.033 µg/mL (≈ 0.0834 µM) with M. tb H37Rv and more than 64 µg/mL in the assay with M. ab_ATCC.
In the case of `C[Si]1(C)CCCC(NC(=O)c2cc3sc(-c4ccccc4)nc3[nH]2)CC1` (single isomer, unassigned) [MPL-357A, N-(1,1-dimethylsilepan-4-yl)-2-phenyl-4H-pyrrolo[2,3-d]thiazole-5-carboxamide], the “M. tb H37Rv: MIC-MABA” value in the assay on M. tb H37Rv was 0.007 µg/mL.
Still for that read-out and setting: the figure for `CC1CCC(NC(=O)c2cc3sc(-c4ccccc4)nc3[nH]2)CC1` (single isomer, unassigned) [MPL-433B, N-(4-methylcyclohexyl)-2-phenyl-4H-pyrrolo[2,3-d]thiazole-5-carboxamide] is 0.69 µg/mL.
As to `CC1CCC(NC(=O)c2cc3sc(-c4ccccc4)nc3[nH]2)CC1` (single isomer, unassigned) [MPL-433A, N-(4-methylcyclohexyl)-2-phenyl-4H-pyrrolo[2,3-d]thiazole-5-carboxamide], the MIC in the assay on M. tb H37Rv is more than 1 µg/mL.
Take `C[Si]1(C)CCCC(NC(=O)c2cc3sc(-c4ccccc4)nc3[nH]2)CC1` (single isomer, unassigned) [MPL-357B, N-(1,1-dimethylsilepan-4-yl)-2-phenyl-4H-pyrrolo[2,3-d]thiazole-5-carboxamide]: the “M. tb H37Rv: MIC-MABA” value in the assay on M. tb H37Rv worked out at 0.110 µg/mL.
For `CC(C)(C)c1ccc(-c2nc3[nH]c(C(=O)NC4CC[Si]5(CCCCC5)CC4)cc3s2)cc1` [MPL-426, 2-(4-tert-butylphenyl)-N-(6-silaspiro[5.5]undecan-3-yl)-4H-pyrrolo[2,3-d]thiazole-5-carboxamide], the minimal inhibitory concentration (MIC) in the assay on M. tb H37Rv is 0.12 µg/mL (≈ 0.258 µM).
